The test system of this experiment is CD2F1 mice, L1210 leukemia ip, survival T/C. The experiment is described as follows: NCI In Vivo Anticancer Drug Screen. Data for tumor model L1210 Leukemia (intraperitoneal) in CD2F1 (CDF1) mice. The note with it: higher = longer survival. An outline of the steps: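 Antitumor effect is scored in animals hosting a serially transplanted tumor. Values compare compound-dosed animals against vehicle-only controls as a simple quotient.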

[1] abbreviates: endpoint: mean survival time, dose: 100.0 mg/kg/injection, schedule: Q01DX001 (ip), vehicle: saline with Tween-80.
[2] abbreviates: endpoint: mean survival time, dose: 100.0 mg/kg/injection, schedule: Q04DX003 (ip), vehicle: saline with Tween-80.
Setting [3] is: endpoint: mean survival time, dose: 200.0 mg/kg/injection, schedule: Q01DX001 (ip), vehicle: saline with Tween-80.
Setting [4] is: endpoint: mean survival time, dose: 200.0 mg/kg/injection, schedule: Q04DX003 (ip), vehicle: saline with Tween-80.
Setting [5] is: endpoint: mean survival time, dose: 400.0 mg/kg/injection, schedule: Q01DX001 (ip), vehicle: saline with Tween-80.
Where [6] appears, read: endpoint: mean survival time, dose: 400.0 mg/kg/injection, schedule: Q04DX003 (ip), vehicle: saline with Tween-80.
Where [7] appears, read: endpoint: mean survival time, dose: 150.0 mg/kg/injection, schedule: Q01DX001 (ip), vehicle: saline.
Setting [8] is: endpoint: mean survival time, dose: 100.0 mg/kg/injection, schedule: Q01DX009 (ip), vehicle: saline with Tween-80.
Setting [9] is: endpoint: mean survival time, dose: 200.0 mg/kg/injection, schedule: Q01DX009 (ip), vehicle: saline with Tween-80.
Where [10] appears, read: endpoint: mean survival time, dose: 400.0 mg/kg/injection, schedule: Q01DX009 (ip), vehicle: saline with Tween-80.

This passage reports T/C results from PubChem BioAssay AID256 (DTP/NCI, 2004).

Several values for one entry are separate records, joined by “and”; a condition that tells them apart may be missing. Equal values may be shown once. Toxic doses and inconclusive results are not listed.

As for `C=C1C(O)C2(O)OCC34C(CC5C(C)=CC(=O)C(O)C5(C)C23)OC(=O)C(OC(=O)C/C=C(\C)CCCCC)C14` (centres undefined), the T/C reads like this: (endpoint: median survival time, dose: 1.0 mg/kg/injection, schedule: Q01DX005 (ip), vehicle: saline + alcohol) 109 % of control; (endpoint: median survival time, dose: 2.0 mg/kg/injection, schedule: Q01DX005 (ip), vehicle: saline + alcohol) 118 % of control; (endpoint: median survival time, dose: 8.0 mg/kg/injection, schedule: Q01DX005 (ip), vehicle: saline + alcohol) 121 % of control.
Take `c1ccc(-c2ccccc2N=C2N=NN=N2)cc1`: the T/C under setting [1] was 96 % of control; the T/C under setting [2] is 103 % of control; the T/C under setting [3] was 114 % of control; the T/C under setting [4] was 93 % of control; the T/C under setting [5] is 94 % of control; the T/C under setting [6] was 97 % of control.
As for `COC1OC(COC(C)=O)C(OC(C)=O)C(NC(=O)N(CCCl)N=O)C1OC(C)=O` (centres undefined), the T/C was 240 % of control (endpoint: mean survival time, dose: 13.0 mg/kg/injection, schedule: Q01DX001 (ip), vehicle: saline with Tween-80); 469 % of control (endpoint: mean survival time, dose: 20.0 mg/kg/injection, schedule: Q01DX001 (ip), vehicle: saline with Tween-80); 535 % of control (endpoint: mean survival time, dose: 30.0 mg/kg/injection, schedule: Q01DX001 (ip), vehicle: saline with Tween-80); 459 % of control (endpoint: mean survival time, dose: 44.0 mg/kg/injection, schedule: Q01DX001 (ip), vehicle: saline with Tween-80); 245 % of control (endpoint: mean survival time, dose: 67.0 mg/kg/injection, schedule: Q01DX001 (ip), vehicle: saline with Tween-80).
For `CCn1cnc2c(=S)nc[nH]c21`, the T/C (endpoint: mean survival time, dose: 9.4 mg/kg/injection, schedule: Q03HX024 (ip), vehicle: saline) was 107 % of control; the T/C (endpoint: mean survival time, dose: 15.0 mg/kg/injection, schedule: Q01DX009 (ip), vehicle: saline) is 104 % of control; the T/C (endpoint: mean survival time, dose: 15.0 mg/kg/injection, schedule: Q03HX008 (ip), vehicle: saline) was 121 % of control; the T/C (endpoint: mean survival time, dose: 18.8 mg/kg/injection, schedule: Q03HX016 (ip), vehicle: saline) was 101 % of control; the T/C (endpoint: mean survival time, dose: 30.0 mg/kg/injection, schedule: Q01DX009 (ip), vehicle: saline) was 113 % of control; the T/C (endpoint: mean survival time, dose: 37.5 mg/kg/injection, schedule: Q03HX024 (ip), vehicle: saline) is 156 % of control. In addition, the T/C is 163 % of control (endpoint: mean survival time, dose: 56.3 mg/kg/injection, schedule: Q03HX024 (ip), vehicle: saline); 161 % of control (endpoint: mean survival time, dose: 60.0 mg/kg/injection, schedule: Q03HX008 (ip), vehicle: saline); 101 % of control (endpoint: mean survival time, dose: 75.0 mg/kg/injection, schedule: Q03DX003 (ip), vehicle: saline); 161 % of control (endpoint: mean survival time, dose: 75.0 mg/kg/injection, schedule: Q03HX016 (ip), vehicle: saline); 108 % of control and 109 % of control (endpoint: mean survival time, dose: 75.0 mg/kg/injection, schedule: Q04DX003 (ip), vehicle: saline); 87 % of control (endpoint: mean survival time, dose: 120.0 mg/kg/injection, schedule: Q01DX009 (ip), vehicle: saline). Moreover, the T/C is, setting by setting: under setting [7], 115 % of control; (endpoint: mean survival time, dose: 150.0 mg/kg/injection, schedule: Q01DX007 (ip), vehicle: saline) 96 % of control; (endpoint: mean survival time, dose: 150.0 mg/kg/injection, schedule: Q01DX009 (ip), vehicle: saline) 106 % of control; (endpoint: mean survival time, dose: 150.0 mg/kg/injection, schedule: Q03DX003 (ip), vehicle: saline) 112 % of control; (endpoint: mean survival time, dose: 300.0 mg/kg/injection, schedule: Q04DX003 (ip), vehicle: saline) 112 % of control; (endpoint: mean survival time, dose: 300.0 mg/kg/injection, schedule: Q08DX002 (ip), vehicle: saline) 151 % of control. The T/C by setting is: (endpoint: mean survival time, dose: 600.0 mg/kg/injection, schedule: Q08DX002 (ip), vehicle: saline) 105 % of control; (endpoint: median survival time, dose: 12.5 mg/kg/injection, schedule: Q01DX009 (ip), vehicle: saline with Tween-80) 118 % of control; (endpoint: median survival time, dose: 25.0 mg/kg/injection, schedule: Q01DX009 (ip), vehicle: saline with Tween-80) 118 % of control; (endpoint: median survival time, dose: 31.3 mg/kg/injection, schedule: Q01DX009 (ip), vehicle: saline) 100 % of control and 111 % of control; (endpoint: median survival time, dose: 62.5 mg/kg/injection, schedule: Q01DX009 (ip), vehicle: saline) 188 % of control; (endpoint: median survival time, dose: 100.0 mg/kg/injection, schedule: Q01DX009 (ip), vehicle: saline with Tween-80) 183 % of control. The T/C reads like this: (endpoint: median survival time, dose: 125.0 mg/kg/injection, schedule: Q01DX009 (ip), vehicle: saline) 116 % of control; (endpoint: median survival time, dose: 200.0 mg/kg/injection, schedule: Q01DX009 (ip), vehicle: saline with Tween-80) 118 % of control.
For `CC(C)CC(NC(c1ccccc1)(c1ccccc1)c1ccccc1)C(=O)O` (centres undefined), the T/C was 102 % of control (endpoint: mean survival time, dose: 100.0 mg/kg/injection, schedule: Q01DX001 (ip), vehicle: saline); 95 % of control (endpoint: mean survival time, dose: 200.0 mg/kg/injection, schedule: Q01DX001 (ip), vehicle: saline); 102 % of control (endpoint: mean survival time, dose: 400.0 mg/kg/injection, schedule: Q01DX001 (ip), vehicle: saline).
Turning to `COC(=O)c1nc2ccccc2nc1C(=O)OC`, the T/C under setting [8] is 103 % of control; the T/C under setting [2] is 100 % of control; the T/C under setting [9] is 103 % of control; the T/C under setting [4] is 94 % of control; the T/C under setting [10] was 102 % of control; the T/C under setting [6] is 96 % of control.
In the case of `O=C(Cc1ccccc1)c1ccc(Cl)cc1`, the T/C is, setting by setting: under setting [1], 101 % of control; under setting [3], 88 % of control; under setting [5], 93 % of control.
Consider `OC1(c2c(F)c(F)c(F)c(F)c2F)C2CCC1CC2` (centres undefined), for which the T/C (endpoint: mean survival time, dose: 37.5 mg/kg/injection, schedule: Q04DX002 (ip), vehicle: saline with Tween-80) was 98 % of control; the T/C (endpoint: mean survival time, dose: 75.0 mg/kg/injection, schedule: Q04DX002 (ip), vehicle: saline with Tween-80) was 110 % of control; the T/C (endpoint: mean survival time, dose: 150.0 mg/kg/injection, schedule: Q04DX002 (ip), vehicle: saline with Tween-80) was 98 % of control; the T/C (endpoint: mean survival time, dose: 300.0 mg/kg/injection, schedule: Q04DX002 (ip), vehicle: saline with Tween-80) is 102 % of control.
As for `Clc1ccccc1-c1nc2ccccc2[nH]1`, the T/C (endpoint: mean survival time, dose: 50.0 mg/kg/injection, schedule: Q04DX003 (ip), vehicle: saline with Tween-80) is 98 % of control; the T/C under setting [2] is 96 % of control; the T/C under setting [4] is 96 % of control.
For `O=C1OCCCC1O` (centres undefined), the T/C under setting [7] is 97 % of control.
For the molecule `COC(=O)NC1C(C)OC(OC2C/C=C(/C)C3C=CC4C(OC5CC(OC6CCC(OC7CC(O)C(OC8CCC(O)C(C)O8)C(C)O7)C(C)O6)C(OC(C)=O)C(C)O5)C(C)CC(C)C4C3(C)/C(O)=C3/C(=O)OC4(CC(C=O)=CC(O)C4/C=C\2C)C3=O)CC1(C)[N+](=O)[O-]` (centres undefined), the T/C is 106 % of control (endpoint: median survival time, dose: 1.25 mg/kg/injection, schedule: Q01DX009 (ip), vehicle: water); 106 % of control (endpoint: median survival time, dose: 2.5 mg/kg/injection, schedule: Q01DX009 (ip), vehicle: water); 113 % of control (endpoint: median survival time, dose: 5.0 mg/kg/injection, schedule: Q01DX009 (ip), vehicle: water); 121 % of control (endpoint: median survival time, dose: 10.0 mg/kg/injection, schedule: Q01DX009 (ip), vehicle: water).
In the case of `COc1ccc(CNC(C#N)c2ccccc2)cc1OC` (centres undefined), the T/C is 97 % of control under setting [8], 104 % of control under setting [9] and 97 % of control under setting [10].
For `O=C(Cl)c1ccccc1Sc1ccccc1`, under setting [2], the T/C is 87 % of control.
Regarding `N#CC(C#N)=NNc1cccc(Cl)c1Cl`, the T/C is, setting by setting: (endpoint: mean survival time, dose: 5.0 mg/kg/injection, schedule: Q04DX003 (ip), vehicle: saline with Tween-80) 106 % of control; (endpoint: mean survival time, dose: 10.0 mg/kg/injection, schedule: Q04DX003 (ip), vehicle: saline with Tween-80) 104 % of control; (endpoint: mean survival time, dose: 20.0 mg/kg/injection, schedule: Q04DX003 (ip), vehicle: saline with Tween-80) 101 % of control.
`COc1ccc(C2(O)C3CCC2CC3)cc1` (centres undefined): the T/C is 96 % of control (endpoint: mean survival time, dose: 12.5 mg/kg/injection, schedule: Q04DX002 (ip), vehicle: saline with Tween-80); 101 % of control (endpoint: mean survival time, dose: 25.0 mg/kg/injection, schedule: Q04DX002 (ip), vehicle: saline with Tween-80); 108 % of control (endpoint: mean survival time, dose: 50.0 mg/kg/injection, schedule: Q04DX002 (ip), vehicle: saline with Tween-80).
